Measurements as given in patent publication US5459131A, “Renin inhibitors” (American Cyanamid Company, priority 1991, dated 1995).
pIC50: −log10 of the molar value.

Target: T1, human kidney renin (Homo sapiens, UniProt P00797)
T1 construct: Human renin is prepared from human kidney; from tissue; host or cells: human kidney
T1 sequence (P00797 67-406): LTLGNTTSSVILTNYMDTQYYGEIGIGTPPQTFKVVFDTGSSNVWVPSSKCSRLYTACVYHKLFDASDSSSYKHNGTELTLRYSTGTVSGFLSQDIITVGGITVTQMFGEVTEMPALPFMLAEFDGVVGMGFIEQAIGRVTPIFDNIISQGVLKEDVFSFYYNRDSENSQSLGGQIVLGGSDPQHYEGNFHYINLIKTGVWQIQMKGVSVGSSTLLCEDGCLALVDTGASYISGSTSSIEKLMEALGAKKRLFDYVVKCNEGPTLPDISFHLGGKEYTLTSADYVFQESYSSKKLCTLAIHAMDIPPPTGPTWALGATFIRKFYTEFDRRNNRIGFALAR
Assay: Radioimmunoassay screen for renin inhibitors (angiotensin I generation, then RIA quantitation)
Format: biochemical
Settings: purified human plasma angiotensinogen substrate, maleate buffer pH 6.0, 1 hour at 37° C.; read-out: Renin Inhibition IC50 Molar Concentration
Method: Radioimmunoassay Screen For Renin Inhibitors
The in vitro method for the screening of anti-renin compounds involves, first, angiotensin I generation, and second, the quantitation of the angiotensin I produced by radioimmunoassay.
The incubation medium consisted of 20 μl of purified human plasma angiotensinogen; (1) 10 μl of human kidney renin; (2) 5 μl of phenylmethylsulfonyl fluoride; 10 μl of disodium EDTA (10 mM); 10 μl of antirenin compound (5×10^-3 M, 5×10^-4 M, 5×10^-5 M) in dimethylformamide, or ethanol and a suitable amount of maleate buffer (77 mM, pH 6.0) to make a final volume of 500 μl . The reaction mixture is incubated for one hour at 37° C. and the enzymatic reaction is stopped by placing the tube in ice-cold water. The angiotensin I generated during the incubation is measured by a radioimmunoassay plasma renin activity kit (Clinical Assays, Inc.).
Radioimmunoassay Procedure
The incubation medium consisted of either 100 μl aliquots of the above reaction mixture or a standard amount of angiotensin I; 1000 μl of phosphate buffer (100 mM, pH 7.6) and 100 μl of (^125 I) angiotensin in a gamma-coat tube. After three hours of incubation at room temperature, the tubes are decanted, and the radioactivity of each tube is determined in a gamma counter. Duplicate determinations are performed for each incubation. The results are expressed in ng of angiotensin I generated per ml of generation medium per hour of incubation (ng/AI/ml/hr).
The results of this test on representative compounds of this invention appear in Table I, expressed as an IC50.
(1) The human plasma angiotensinogen derived from the blood of a person receiving oral contraceptive pills is purified by chromatography on a pepstatinaminohexyl-agarose column.
(2) Human renin is prepared from human kidney.

Substance | pIC50
[S-(R*,R*)]4,7-anhydro-2-[[2-[[4-(2-benzofuranyl)-1,4-dioxo-2-(phenylmethyl)butyl]amino]-3-(1H-imidazol-4-yl)-1-oxopropyl]amino]-1-cyclohexyl-1,2,5,6-tetradeoxy-L-arabino-Heptitol | 7.38
[S-(R*,R*)]-4,7-anhydro-1-cyclohexyl-1,2,5,6-tetradeoxy-2-[[4-methyl-2-[[4-[3-[(methylamino)sulfonyl]phenyl]-1,4-dioxo-2-(phenylmethyl)buyhl]amino]-1-oxopentyl]amino]-L-arabino-Heptitol | 7.15
[S-(R*,S*)[-4,7-anhydro-2-[[2-[[4-(2-benzofuranyl)-1,4-dioxo-2-(phenylmethyl)butyl]amino]-3-(1H-imidazol-4-yl)-1-oxopropyl]amino]-1-cyclohexyl-1,2,5,6-tetradeosy-L-arabino-Heptitol | 8.82
[S-(R*,S*)]-1-cyclohexyl-1,2,4,5,6,7-hexadeoxy-2-[[2-[[1,4-dioxo-4-phenyl-2-(phenylmethyl)butyl]amino]-4-methyl-1-oxopentyl]amino]-4,7-epithio-L-arabino-Heptitol, [R (or S)]-S-oxide | 7.92
[S-(R*,S*)]-1-cyclohexyl-2-[[2-[[1,4-dioxo-4-phenyl-2-(phenylmethyl)butyl]amino]-4-methyl-1-oxopentyl]amino]-4,7-epithio-1,2,4,5,6,7-hexadeoxy-L-arabino-Heptitol, (R and S)-S-oxide | 8.08
[S-(R*,S*)]-4,7-anhydro-1-cyclohexyl-1,2,5,6-tetradeoxy-2-[[2-[[1,4-dioxo-2-(phenylmethyl)-4-(2-thienyl)butyl]amino]-4-methyl-1-oxo-pentyl]amino]-L-arabino-Heptitol | 10.10
[S-(R*,S*)]-4,7-anhydro-1-cyclohexyl-1,2,5,6-tetradeoxy-2-[[4-methyl-2-[[4-[3-[(methylamino)sulfonyl]phenyl]-1,4-dioxo-2-(phenylmethyl)butyl]amino]-1-oxopentyl]amino]-L-arabino-Heptitol | 8.62
[S-(R*,S*)]-4,7-anhydro-1-cyclohexyl-1,2,5,6-tetradoxy-2-[[2-[[1,4-dioxo-4-phenyl-2-(phenylmethyl)butyl]amino]-4-methyl-1-oxopentyl]amino]-D-xylo-Heptitol | 6.33
